Laboratory results reported in BindingDB's records for doi:10.7270/Q24Q7SF3 (Burnham Center For Chemical Genomics, 2010).

Molecular target: T1, Alkaline phosphatase, tissue-nonspecific isozyme (Homo sapiens, UniProt P05186)
T1 sequence (P05186 whole entry): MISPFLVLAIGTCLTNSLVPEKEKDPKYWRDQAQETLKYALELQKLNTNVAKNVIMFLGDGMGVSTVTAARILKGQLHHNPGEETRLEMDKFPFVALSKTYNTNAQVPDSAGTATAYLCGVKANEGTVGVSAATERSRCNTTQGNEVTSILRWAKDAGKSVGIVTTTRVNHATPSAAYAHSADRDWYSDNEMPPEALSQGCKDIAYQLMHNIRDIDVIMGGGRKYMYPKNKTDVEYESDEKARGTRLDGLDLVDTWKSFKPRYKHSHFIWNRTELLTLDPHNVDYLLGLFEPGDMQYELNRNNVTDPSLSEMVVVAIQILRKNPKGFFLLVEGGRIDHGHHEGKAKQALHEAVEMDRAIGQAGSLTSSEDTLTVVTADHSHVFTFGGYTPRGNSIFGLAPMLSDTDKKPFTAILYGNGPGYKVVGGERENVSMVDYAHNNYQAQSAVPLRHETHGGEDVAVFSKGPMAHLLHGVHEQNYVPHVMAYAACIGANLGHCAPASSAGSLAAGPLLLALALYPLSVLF
Assay: activation of tissue-nonspecific alkaline phosphatase – biochemical, TNAP isozyme, human IAP uHTS hits, selectivity assay for human IAP activator project, dose response (AID 488886)

Row | Structure (SMILES) | EC50 [µM]
1 | CCOC(=O)c1c(C)[nH]c(C(=O)N/N=C/C2C=C([N+](=O)[O-])C=CC2=O)c1C (stereo not drawn) [ethyl 2,4-dimethyl-5-[[[(E)-(3-nitro-6-oxocyclohexa-2,4-dien-1-ylidene)methyl]amino]carbamoyl]-1H-pyrrole-3-carboxylate] | 22.3
2 | O=Nc1[nH]c(=O)c(CC(=O)c2ccccc2)nc1NO [SMR000539633] | > 100
3 | C=c1[nH]n(-c2nc3ccccc3[nH]2)c(=O)c1=CN(C)C [(4E)-2-(1H-benzimidazol-2-yl)-4-(dimethylaminomethylidene)-5-methyl-pyrazol-3-one] | 11.4
4 | Cn1c(C(C#N)C(=O)c2ccc(Br)s2)nc2ccccc21 (stereo not drawn) [MLS001167394] | 45
5 | O=c1c2ccccc2nc(N=NCc2c(O)ccc3ccccc23)n1O [SMR000145705] | > 100
6 | CCc1ccc(CN=Nc2ncnc3nc[nH]c23)cc1 [MLS000419199] | 17.7
7 | Cc1cc(Br)ccc1SCC(=O)OCC(=O)C(C#N)c1nc2ccccc2[nH]1 (stereo not drawn) [2-[(4-bromo-2-methylphenyl)thio]acetic acid [3-cyano-3-(1,3-dihydrobenzimidazol-2-ylidene)-2-oxopropyl] ester] | 24.1
8 | COc1cccc(C=NNC(=O)c2[nH][nH]c(=O)c2C)c1O [N'-[(E)-(5-methoxy-6-oxidanylidene-cyclohexa-2,4-dien-1-ylidene)methyl]-4-methyl-5-oxidanylidene-1,4-dihydropyrazole-3-carbohydrazide] | 8.88
